Columns and labels:
[1] = test system: MIA PaCa-2 (KRAS G12C) cells; experiment: Cellular pERK HTRF assay (KRAS_G12C pERK); assay type: cell-based, human; details: Homo sapiens, MIA PaCa-2, 4 hours incubation, read-out: G12C_pERK
Outline: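 MIA PaCa-2 cells plated overnight, then exposed to compound for 4 h at 37 °C (G12C compounds). Phospho-ERK1/2 measured in lysates by HTRF (665/620 nm) after overnight antibody incubation; IC50 from percent inhibition versus log concentration.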

KRAS G12C = KRAS G12C (Homo sapiens, UniProt P01116, G12C); experiment: GDP-GTP exchange assay (KRAS_G12C exchange); assay type: biochemical; details: bodipy-GDP loaded KRAS G12C 2.5 nM, SOS1 150 nM, GppNHp; 2 hours pre-incubation, 2 hours reaction; read-out: G12C_exchange
Outline: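 Fluorescence exchange of bodipy-GDP for GppNHp, SOS1-driven, read at 485/520 nm; IC50 from four-parameter variable-slope fit. Both mutants used 2.5 nM final labelled protein and a 2 h compound pre-incubation. G12C reaction had 500 uM GppNHp and 150 nM SOS1 for 2 h; G12D ran 4 h.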

Chain of KRAS G12C (P01116 1-188 isoform P01116-2 G12C): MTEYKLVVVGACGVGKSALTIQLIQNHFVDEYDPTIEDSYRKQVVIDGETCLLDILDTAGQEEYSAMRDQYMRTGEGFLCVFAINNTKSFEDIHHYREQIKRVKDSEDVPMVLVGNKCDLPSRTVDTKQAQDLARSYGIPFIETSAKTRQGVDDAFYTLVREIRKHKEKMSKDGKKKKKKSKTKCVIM

IC50 [1] [nM]	IC50 (KRAS G12C) [nM]	Compound
≤ 100	≤ 100	COC/C=C/C(=O)N1CC[C@H](n2cnc3c(OC[C@@H]4CCCN4C)nc4c(F)c(-c5c(C)c(Cl)cc6[nH]ncc56)c(Cl)cc4c32)C[C@H]1CC#N [Example 184a, 2-((2S,4S)-4-(8-chloro-7-(6-chloro-5-methyl-1H-indazol-4-yl)-6-fluoro-4-(((S)-1-methylpyrrolidin-2-yl)methoxy)-1H-imidazo[4,5-c]quinolin-1-yl)-1-((E)-4-methoxybut-2-enoyl)piperidin-2-yl)acetonitrile]
≤ 100	≤ 100	COC/C=C/C(=O)N1CC[C@H](n2nnc3c(N4CC(N(C)C)C4)nc4c(F)c(-c5c(C)c(Cl)cc6[nH]ncc56)c(Cl)cc4c32)C[C@H]1CC#N [Example 186a, 2-((2S,4S)-4-(8-chloro-7-(6-chloro-5-methyl-1H-indazol-4-yl)-4-(3-(dimethylamino)azetidin-1-yl)-6-fluoro-1H-[1,2,3]triazolo[4,5-c]quinolin-1-yl)-1-((E)-4-methoxybut-2-enoyl)piperidin-2-yl)acetonitrile]
≤ 100	≤ 100	C=CC(=O)N1CC[C@H](n2nnc3c(OC[C@@H]4CCCN4C)nc4c(F)c(-c5ccc(F)c(C)c5)c(Cl)cc4c32)C[C@H]1CC#N [Example 187, 2-((2S,4S)-1-acryloyl-4-(8-chloro-6-fluoro-7-(4-fluoro-3-methylphenyl)-4-(((S)-1-methylpyrrolidin-2-yl)methoxy)-1H-[1,2,3]triazolo[4,5-c]quinolin-1-yl)piperidin-2-yl)acetonitrile]
≤ 100	≤ 100	CC#CC(=O)N1CC[C@H](n2nnc3cnc4c(F)c(-c5c(C)c(Cl)cc6[nH]ncc56)c(Cl)cc4c32)C[C@H]1CC#N [Example 188, 2-((2S,4S)-1-(but-2-ynoyl)-4-(8-chloro-7-(6-chloro-5-methyl-1H-indazol-4-yl)-6-fluoro-1H-[1,2,3]triazolo[4,5-c]quinolin-1-yl)piperidin-2-yl)acetonitrile]
≤ 100	≤ 100	C=C(F)C(=O)N1CC[C@H](n2nnc3c(N4CC(N(C)C)C4)nc4c(F)c(-c5c(C)c(Cl)cc6[nH]ncc56)c(Cl)cc4c32)C[C@H]1CC#N [Example 189, 2-((2S,4S)-4-(8-chloro-7-(6-chloro-5-methyl-1H-indazol-4-yl)-4-(3-(dimethylamino)azetidin-1-yl)-6-fluoro-1H-[1,2,3]triazolo[4,5-c]quinolin-1-yl)-1-(2-fluoroacryloyl)piperidin-2-yl)acetonitrile]
≤ 100	≤ 100	C=CC(=O)N1CC[C@H](n2nnc3c(OC[C@@H]4CCCN4C)nc4c(F)c(-c5c(C)c(Cl)cc6[nH]ncc56)c(Cl)cc4c32)C[C@H]1CC#N [Example 190a, 2-((2S,4S)-1-acryloyl-4-(8-chloro-7-(6-chloro-5-methyl-1H-indazol-4-yl)-6-fluoro-4-(((S)-1-methylpyrrolidin-2-yl)methoxy)-1H-[1,2,3]triazolo[4,5-c]quinolin-1-yl)piperidin-2-yl)acetonitrile]
≤ 100	≤ 100	C=C(F)C(=O)N1CC[C@H](n2nnc3c(OC[C@@H]4CCCN4C)nc4c(F)c(-c5c(C)c(Cl)cc6[nH]ncc56)c(Cl)cc4c32)C[C@H]1CC#N [Example 192, 2-((2S,4S)-4-(8-chloro-7-(6-chloro-5-methyl-1H-indazol-4-yl)-6-fluoro-4-(((S)-1-methylpyrrolidin-2-yl)methoxy)-1H-[1,2,3]triazolo[4,5-c]quinolin-1-yl)-1-(2-fluoroacryloyl)piperidin-2-yl)acetonitrile]
≤ 100	≤ 100	COC/C=C/C(=O)N1CC[C@H](n2nnc3c(N4CC(C)(N(C)C)C4)nc4c(F)c(-c5c(C)c(Cl)cc6[nH]ncc56)c(C)cc4c32)C[C@H]1CC#N [Example 195a, 2-((2S,4S)-4-(7-(6-chloro-5-methyl-1H-indazol-4-yl)-4-(3-(dimethylamino)-3-methylazetidin-1-yl)-6-fluoro-8-methyl-1H-[1,2,3]triazolo[4,5-c]quinolin-1-yl)-1-((E)-4-methoxybut-2-enoyl)piperidin-2-yl)acetonitrile]
≤ 100	≤ 100	Cc1cc2c(nc(N3CC(C)(N(C)C)C3)c3nnn([C@H]4CCN(C(=O)/C=C/CN(C)C)[C@H](CC#N)C4)c32)c(F)c1-c1c(C)c(Cl)cc2[nH]ncc12 [Example 196a, 2-((2S,4S)-4-(7-(6-chloro-5-methyl-1H-indazol-4-yl)-4-(3-(dimethylamino)-3-methylazetidin-1-yl)-6-fluoro-8-methyl-1H-[1,2,3]triazolo[4,5-c]quinolin-1-yl)-1-((E)-4-(dimethylamino)but-2-enoyl)piperidin-2-yl)acetonitrile]
≤ 100	≤ 100	Cc1cc2c(nc(N3CC(C)(N(C)C)C3)c3nnn([C@H]4CCN(C(=O)/C=C/C(F)F)[C@H](CC#N)C4)c32)c(F)c1-c1c(C)c(Cl)cc2[nH]ncc12 [Example 197a, 2-((2S,4S)-4-(7-(6-chloro-5-methyl-1H-indazol-4-yl)-4-(3-(dimethylamino)-3-methylazetidin-1-yl)-6-fluoro-8-methyl-1H-[1,2,3]triazolo[4,5-c]quinolin-1-yl)-1-((E)-4,4-difluorobut-2-enoyl)piperidin-2-yl)acetonitrile]
≤ 100	≤ 100	C=CC(=O)N1CC[C@H](n2nnc3c(OC[C@@H]4CCCN4C)nc4c(F)c(-c5ccc(F)c(C)c5)c(C)cc4c32)C[C@H]1CC#N [Example 199, 2-((2S,4S)-1-acryloyl-4-(6-fluoro-7-(4-fluoro-3-methylphenyl)-8-methyl-4-(((S)-1-methylpyrrolidin-2-yl)methoxy)-1H-[1,2,3]triazolo[4,5-c]quinolin-1-yl)piperidin-2-yl)acetonitrile]
≤ 100	≤ 100	Cc1c(Cl)cc2[nH]ncc2c1-c1c(Cl)cc2c(nc(N3CC(N(C)C)C3)c3nnn([C@H]4CCN(C(=O)/C=C/C(F)F)[C@H](CC#N)C4)c32)c1F [Example 201a, 2-((2S,4S)-4-(8-chloro-7-(6-chloro-5-methyl-1H-indazol-4-yl)-4-(3-(dimethylamino)azetidin-1-yl)-6-fluoro-1H-[1,2,3]triazolo[4,5-c]quinolin-1-yl)-1-((E)-4,4-difluorobut-2-enoyl)piperidin-2-yl)acetonitrile]
≤ 100	≤ 100	C=CC(=O)N1CC[C@H](n2nnc3c(N4CC(C)(N(C)C)C4)nc4c(F)c(-c5c(C)c(F)cc6[nH]ncc56)c(C)cc4c32)C[C@H]1CC#N [Example 202a, 2-((2S,4S)-1-acryloyl-4-(4-(3-(dimethylamino)-3-methylazetidin-1-yl)-6-fluoro-7-(6-fluoro-5-methyl-1H-indazol-4-yl)-8-methyl-1H-[1,2,3]triazolo[4,5-c]quinolin-1-yl)piperidin-2-yl)acetonitrile]
≤ 100	≤ 100	COC/C=C/C(=O)N1CC[C@H](n2nnc3c(N4CC(C)(N(C)C)C4)nc4c(F)c(-c5c(C)c(F)cc6[nH]ncc56)c(C)cc4c32)C[C@H]1CC#N [Example 203a, 2-((2S,4S)-4-(4-(3-(dimethylamino)-3-methylazetidin-1-yl)-6-fluoro-7-(6-fluoro-5-methyl-1H-indazol-4-yl)-8-methyl-1H-[1,2,3]triazolo[4,5-c]quinolin-1-yl)-1-((E)-4-methoxybut-2-enoyl)piperidin-2-yl)acetonitrile]
≤ 100	≤ 100	CC#CC(=O)N1CC[C@H](n2nnc3c(OC[C@@H]4CCCN4C)nc4c(F)c(-c5cccc(Cl)c5OC)c(CCC#N)cc4c32)C[C@H]1CC#N [Example 204, 3-(1-((2S,4S)-1-(but-2-ynoyl)-2-(cyanomethyl)piperidin-4-yl)-7-(3-chloro-2-methoxyphenyl)-6-fluoro-4-(((S)-1-methylpyrrolidin-2-yl)methoxy)-1H-[1,2,3]triazolo[4,5-c]quinolin-8-yl)propanenitrile]
≤ 100	≤ 100	Cc1cccc(-c2c(C)cc3c(nc(N4CC(N(C)C)C4)c4nnn([C@H]5CCN(C(=O)/C=C/CF)[C@H](CC#N)C5)c43)c2F)c1C [Example 206, 2-((2S,4S)-4-(4-(3-(dimethylamino)azetidin-1-yl)-7-(2,3-dimethylphenyl)-6-fluoro-8-methyl-1H-[1,2,3]triazolo[4,5-c]quinolin-1-yl)-1-((E)-4-fluorobut-2-enoyl)piperidin-2-yl)acetonitrile]
≤ 100	≤ 100	CC#CC(=O)N1CC[C@H](n2nnc3c(N4CC(N(C)C)C4)nc4c(F)c(-c5cccc(C)c5C)c(C)cc4c32)C[C@H]1CC#N [Example 207, 2-((2S,4S)-1-(but-2-ynoyl)-4-(4-(3-(dimethylamino)azetidin-1-yl)-7-(2,3-dimethylphenyl)-6-fluoro-8-methyl-1H-[1,2,3]triazolo[4,5-c]quinolin-1-yl)piperidin-2-yl)acetonitrile]
≤ 100	≤ 100	C=CC(=O)N1CC[C@H](n2nnc3c(N4CC(C)(N(C)C)C4)nc4c(F)c(-c5cccc(C)c5C)c(C)cc4c32)C[C@H]1CC#N [Example 208, 2-((2S,4S)-1-acryloyl-4-(4-(3-(dimethylamino)-3-methylazetidin-1-yl)-7-(2,3-dimethylphenyl)-6-fluoro-8-methyl-1H-[1,2,3]triazolo[4,5-c]quinolin-1-yl)piperidin-2-yl)acetonitrile]
